This is an account of results in patent US20250213593A1, “Use of Derivatives based on Sarsasapogenin Structure and Pharmaceutical Compositions thereof” (BEIJING PHYTOVENT PHARMACEUTICAL TECHNOLOGY CO., LTD., priority 2022, published 2025).

Converted amounts (≈) assume the structure as drawn. “Also recorded” adds a separate entry of the source.

One may read the solubility as how much of the substance goes into solution per volume.

Series [1] concerns C57BL/6 mouse MCAO damage model. Description: Mice middle cerebral artery occlusion (MCAO) damage model. In kind it is in vivo. The settings on record: 24 h after surgery, vs MCAO model group. The protocol:
Animal grouping and treatment: according to body weight on Day 1, the animals were randomly divided into a total of 8 groups (N=5), one group was treated every day, and 3 animals were selected in each group for measuring cerebral blood flows.
If the hind paws of the mice had no response when clamped with dissecting forceps, they were transferred to an anesthesia mask, and the isoflurane concentration would be increased to 1.5%. A thermostat and an anal temperature probe were used to maintain intraoperative body temperatures of the mice near 37° C. […]
Measurement of cerebral blood flow: the head of each mouse was fixed under a brain stereotaxic instrument, the head hair of the mouse was shaved, and an incision was made in the middle. […] Optical fibers of a laser Doppler flow meter were fixed with glue at coordinates of Bregma AP 1.0 mm and ML 5.0 mm, and the blood flow changes during MCA surgery were recorded. […]
• Body weight: the body weights of the mice on the day before surgery and 24 h after surgery were recorded. • Neurological function scoring: Longa behavioral scoring was performed at 2 h and 24 h after surgery. […]
Each mouse was tested for forelimb grip 24 h before surgery and 24 h after surgery. […] The grip peaks were recorded, repeatedly measured for three times, and averaged. […]

Series [2] deals with transgenic neutrophil fluorescent zebrafishes. Briefly: Maximum tolerated concentration (MTC) in LPS-induced inflammation zebrafish. It is filed as in vivo. The settings on record: for Death count / Death rate (%): n = 30; for If precipitation occurred?: fish-farming water. The text has this: Transgenic neutrophil fluorescent zebrafishes were matched and propagated naturally in pairs. The age was 3 days after fertilization (3 dpf), and there was a total of 810 zebrafishes, with 30 zebrafishes per experimental group. The purposes were to determine maximum tolerated concentrations (MTC) of “Embodiment 5” and “Embodiment 6” in an LPS-induced inflammation experiment, and evaluate anti-inflammatory effects of “Embodiment 5” and “Embodiment 6” on LPS-induced inflammations.
(§1) LPS was used to treat normal 3 dpf transgenic neutrophil fluorescent zebrafishes in a yolk sac injection, and a zebrafish inflammation model was established.
Transgenic neutrophil fluorescent zebrafishes (3 dpf), well developed and consistent in stage on 3 days after fertilization, were picked under a microscope and placed in a six-well plate, with 30 zebrafishes being randomly picked for each well at a capacity of 3 mL in each well. A zebrafish inflammation model was established by administrating LPS in a yolk sac injection. “Embodiment 5” and “Embodiment 6” were respectively dissolved with water, wherein the concentrations were 0.625 μM, 1.25 μM, 2.5 μM, 5 μM, 10 μM, 50 μM, 100 μM and 200 μM, respectively. Meanwhile, anormal control group (i.e., zebrafishes were treated with fish-farming water) and a model control group were set, and cultured in a 28° C. incubator for 3 h, and the death of zebrafishes was then observed and recorded. The number of dead zebrafishes in each experimental group was counted, and the maximum tolerated concentrations (MTCs) of zebrafishes in “Embodiment 5” and “Embodiment 6” were determined.

Series [3] can be described thus: physchem. The settings on record: organic solvent or mixture.
The test system of series [4] is transgenic neutrophil fluorescent zebrafishes. Description: Anti-inflammatory effect on LPS-induced inflammatory zebrafish. It is filed as in vivo. The protocol:
as §1
Transgenic neutrophil fluorescent zebrafishes (3 dpf), well developed and consistent in stage on 3 days after fertilization, were picked under a microscope and placed in a six-well plate, with 30 zebrafishes being randomly picked for each well at a capacity of 3 mL in each well. A zebrafish inflammation model was established by administrating LPS in a yolk sac injection. “Embodiment 5” and “Embodiment 6” were respectively dissolved with water, wherein the concentrations were 0.28 μM, 0.83 μM and 2.5 μM, respectively. The concentration of indomethacin was 80 μM. Meanwhile, a normal control group (i.e., zebrafishes were treated with fish-farming water) and a model control group were set, and incubated in a 28° C. incubator for 3 h. 10 zebrafishes were randomly selected from each group, and observed and photographed under a fluorescence microscope, and the photos were saved. Nikon NIS-Elements D 3.10 advanced image processing software was used for image analysis, the number (N) of inflammatory neutrophils in zebrafish was calculated, and the statistical processing results were expressed as mean±SE. The statistical analysis results of the number of inflammatory neutrophils in zebrafish were used to evaluate whether “Embodiment 5” and “Embodiment 6” had significant anti-inflammatory effects on LPS-induced inflammatory zebrafish, respectively. A formula for calculating the anti-inflammatory effects of “Embodiment 5” and “Embodiment 6” was as follows: […]

For series [5], the system named is transgenic AD mice (C57BL/6J background). Briefly: Light/dark box test of AD mice. In kind it is in vivo, mouse. To be noted: 6 months after administration. The text has this: The principle of the light/dark box test is: the mice have a natural tendency to darkness; and after the mice was put into a light box, the mice would spontaneously enter a connected dark box. However, in this experiment, the dark box was equipped with an electrical stimulation mechanism, and the mice would be shocked when they entered the dark box.

The test system of series [6] is SMPs (submitochondrial particles). Briefly: Catalytic activity of SMPs (NADH dehydrogenation). It is filed as biochemical. The settings on record: Rotenone 2 μM, 10 min, 500 μM NADH. Here is the method: Experiment 9. Detection of Small Molecule Compounds that Facilitated the Catalytic Activity of SMPs (Submitochondrial Particles) • Experimental and analytical method: HEK293 cells were cultured at 5% CO2, and purified to obtain mitocondria, which were sonicated to obtain SMPs (submitochondrial granules). SMPs were incubated with different concentrations of small molecule compounds or a control drug (Rotenone, 2 μM) for 10 min, and then added with 500 μM of NADH. The absorbance of NADH was detected by an Enspire multi-mode microplate reader, an enzyme activity curve with the decrease of NADH concentration catalyzed by SMPs was plotted, and a maximum reaction rate of SMPs was calculated by linear fitting. The addition of 1 mM FeCN to a normal NADH catalytic system of SMPs could cause an electronic pathway from NADH to coenzyme Q to be short-circuited.

The subject of series [7] is Raji-Luc hematologic tumor cells in NOD-Scid immunodeficient mice. Briefly: NOD-Scid mice inoculated with hematologic tumor cells Raji-Luc. The settings on record: 100 mpk by gavage once a day.
The test system of series [8] is C57BL/6 mice modeled with MPTP. Description: PD mouse model (MPTP). In kind it is in vivo. To be noted: 80 mpk, 15 days; vs model group, T-test. Here is the method: • Experimental and analytical method: mice of C57BL/6 strain were used in this experiment, which were divided into 5 groups, including a normal control group (no injection of MPTP), a model group (modeling with MPTP), and treatment groups of three small molecules (Embodiment 13B, Embodiment 25A, and Embodiment 25B). The drug was administered at the same time as modeling was made. The modeling lasted for 5 days, followed by 30 mpk intraperitoneal injection till lasting for 15 days, and lasted for 15 days at 80 mpk. At the endpoint, the brain was soaked and fixed in PFA after cardiac perfusion, and transferred to sucrose dehydration after complete fixation, and OCT embedding and sectioning were used for TH staining after complete dehydration. The detection indicator was the number of TH-positive cells in the substantia nigra. The more positive cells, the better the protection effect of small molecules against MPTP damage. • Results: there were 12 mice in each group, and the statistical results were shown in FIG. 50, T-test, **: p<0.01, #: p<0.05.

[9] abbreviates: concentration 0.625 (table head μg/mL; text μM).
[10] abbreviates: concentration 0.625 (table head μg/mL; text μM), 3 h.
Setting [11] is: concentration 1.25 (table head μg/mL; text μM).
[12] abbreviates: concentration 1.25 (table head μg/mL; text μM), 3 h.
[13] abbreviates: concentration 2.5 (table head μg/mL; text μM).
The mark [14] stands for this setting: concentration 2.5 (table head μg/mL; text μM), 3 h.
Setting [15] is: concentration 5 (table head μg/mL; text μM), 3 h.
The mark [16] stands for this setting: concentration 10 (table head μg/mL; text μM), 3 h.
[17] abbreviates: concentration 50 (table head μg/mL; text μM), 3 h.
Setting [18] is: concentration 100 (table head μg/mL; text μM), 3 h.
Setting [19] is: concentration 200 (table head μg/mL; text μM), 3 h.

Consider `CC1=NN(c2ccccc2)C(=O)C1` [Edaravone], for which, in series [1] (Edaravone 10 mg/kg IP, NO. 2 60 mg/kg PO, NO. 3-6 80 mg/kg PO), the forelimb grip strength result was “significant difference”. Moreover, the “volume of encephaledema (TTC staining)” value in series [1] (doses as Table 6) is “significant difference”.

Regarding `C[C@H]1CC[C@@]2(OC1)O[C@H]1C[C@H]3[C@@H]4CC[C@@H]5CC(NC(=O)CC(=O)N6CCN(C)CC6)CC[C@]5(C)[C@H]4CC[C@]3(C)[C@H]1[C@@H]2C` (stereo partly drawn) [Embodiment 5], the Toxicity result in series [2] (setting [9]) is “No obvious toxicity”; in series [2] (setting [11]), “No obvious toxicity”; in series [2] (setting [13]), “normal state; also recorded: No obvious toxicity”. Moreover, the Death count in series [2] (setting [10]) is given as 0; in series [2] (setting [12]), 0; in series [2] (setting [14]), 0; in series [2] (setting [15]), 3; in series [2] (setting [16]), 30; in series [2] (setting [17]), 30. The Death count in series [2] (setting [18]) and in series [2] (setting [19]) was 30 throughout. In addition, the “Death rate (%)” value in series [2] (setting [10]) stood at 0%; in series [2] (setting [12]), 0%; in series [2] (setting [14]), 0%; in series [2] (setting [15]) it was 10%; in series [2] (setting [16]), 100%; in series [2] (setting [17]), 100%. The “Death rate (%)” value in series [2] (setting [18]) and in series [2] (setting [19]) was 100% each time. The “If precipitation occurred?” value was “No” in series [2] (setting [9]); “No” in series [2] (setting [11]); “not precipitated and No” in series [2] (setting [13]); “No” in series [2] (concentration 5 (table head μg/mL; text μM)); “No” in series [2] (concentration 10 (table head μg/mL; text μM)); “No” in series [2] (concentration 50 (table head μg/mL; text μM)). For the same compound, the “If precipitation occurred?” value in series [2] (concentration 100 (table head μg/mL; text μM)) and in series [2] (concentration 200 (table head μg/mL; text μM)) was “No” in each case. Also, the “maximum tolerated concentration (MTC)” value in series [2] (in the evaluation of the anti-inflammatory effect, LPS zebrafish, 3 h) amounted to 2.5 µM. For the same compound, the solubility in series [3] was found to be 20 mM (≈ 11.7 mg/mL). The “Inflammation resolution (%) / anti-inflammatory effect” value in series [4] (0.28 μM) stood at 33%; in series [4] (0.83 μM) it was 61%; in series [4] (2.5 μM) it was 67%. In addition, in series [4] (0.28 to 2.5 μM, P<0.001 vs model control), the “anti-inflammatory effects on inflammatory zebrafish (in words)” value was “obvious anti-inflammatory effects”.

Turning to `C[C@H]1CC[C@@]2(OC1)O[C@H]1C[C@H]3[C@@H]4CC[C@@H]5CC(NC(=O)CC(=O)N6CC(N7CCOCC7)C6)CC[C@]5(C)C4CC[C@]3(C)[C@H]1[C@@H]2C` (stereo partly drawn) [Embodiment 23], the “memory on electric shock (latency before entering the dark box)” value in series [5] is “could effectively enhance the memory”.

For `C=C(C)[C@H]1Cc2c(ccc3c2O[C@@H]2COc4cc(OC)c(OC)cc4[C@@H]2C3=O)O1` [Rotenone], the “dehydrogenation reaction of NADH by SMPs” value in series [6] is “completely blocked”.

In the case of `CCN1CCN(C2CCN(C(=O)CC(=O)N[C@@H]3CC[C@]4(C)C5CC[C@]6(C)[C@@H]7[C@H](C[C@H]6[C@@H]5CC[C@@H]4C3)O[C@]3(CC[C@H](C)CO3)[C@H]7C)CC2)CC1` (stereo partly drawn) [Embodiment 25B], the “tumor killing effect (in-vivo fluorescence intensity)” value in series [7] is “relatively good tumor killing effects”. Besides, the “number of TH-positive cells in the substantia nigra” value in series [8] is reported as “only the Embodiment 13B group of three small modules had statistically significant differences”.
